Assay results as given in US8592435B2, “Nitrogen-containing six-membered aromatic ring derivatives and pharmaceutical products containing the same” (Daiichi Sankyo Company, Limited, priority 2007, dated 2013).
Counter-ions that a name gives are not always drawn.

Tests used:
[1] = tested on: hippocampal neurons; assay: Test Example 1: ability to promote axonal outgrowth; format: cell-based, Wistar rats; details: for activity at 3 µM: Compound Conc. = 3 μM
Procedure: According to the method of M. P. Mattson [M. P. Mattson, Brain Res. Rev., 13, 179, (1988)], the hippocampal region was isolated from 18-day embryos of female Wistar rats and the neurons were dispersed using the papain dissociation system. Hippocampal neuron were suspended in 5% Nu-serum+B27 supplement+Neurobasal medium at 5×10^4 cells/well/2 mL. 2 mL of the cell suspension were inoculated on a poly-D-lysine-coated 36φ dish and the neuron were incubated at 37° C. in a 5% CO2 incubator.
On day 3 of the incubation period, 1 mL of the culture medium was replaced with 1 mL of 5% Nu-serum+B27 supplement+Neurobasal medium containing 2 mM AraC. Each test compound was added to the culture on day 3 and day 7 of the incubation period. On day 9, cells were fixed in a 4% paraformaldehyde solution. The nerve axons of the fixed cells were stained with the Rabbit anti-growth-associated protein-43 polyclonal antibody and the stained cells were quantified using Kurabo neuron outgrowth-quantication software.
The ability (%) of each test compound to promote axonal outgrowth was calculated from the following equation: The ability to promote axonal outgrowth (%)=[(measurement with a compound of interest)/(measurement of control)]×100
Example Compounds shown in Table 25 were used as test compounds and were each added at concentrations of 3 μM and 0.3 μM.
Since bFGF gives a measurement of about 120 in this test, 120 is used as the threshold to determine whether a given compound has the ability to promote axonal outgrowth

[2] = tested on: mixture of human vascular endothelial cells and fibroblasts; assay: Test Example 2: ability to promote angiogenesis (angiogenesis test kit KZ-1000); format: cell-based; details: for activity at 3 µM / activity at 0.3 µM: Homo sapiens, 216 h, lumen length, % of control, day 9, read-out: Promotion of angiogenesis (%); for activity at 3 µM: Compound Conc. = 3 μM; for activity at 0.3 µM: Compound Conc. = 0.3 μM
Procedure: Using an angiogenesis test kit containing a mixture of human vascular endothelial cells and fibroblasts [KZ-1000; Kurabo], the ability of test compounds to promote angiogenesis was evaluated. Each test compound was added on days 1, 4, and 7 of the incubation period. On day 9, cells were immunostained with CD31 and photographed. Control cells were cultured under the same conditions, only without the addition of a test compound, and photographed.
The lumen length of the blood vessel was quantified from the obtained images using an angiogenesis-quantification software. The ability (%) of each test compound to promote angiogenesis was calculated from the following equation: The ability to promote angiogenesis (%)=[(measurement with a compound of interest)/(measurement of control)]×100
Example Compounds shown in Table 26 were used as test compounds.
Since bFGF gives a measurement of about 120 in this test, 120 is used as the threshold to determine whether a given compound has the ability to promote angiogenesis.

[3] = tested on: spinal cord neurons; assay: Test Example 3: ability to promote the neurite outgrowth of spinal cord neurons; format: cell-based, Wistar rats; details: for Promotion of spinal cord neurite outgrowth (%): Compound Conc. = 0.1 μM, % of control, day 3
Procedure: According to the method of Martin G. Hanson Jr. [J. Neurosci., 1998 Sep. 15; 18(18): 7361-71], the spinal cord region was isolated from 15-day embryos of female Wistar rats and the cells were dispersed using the papain dissociation system. Neurons were collected using 6.8% Metrizamide density gradient and were suspended in 2% FBS+Leibovitz's −15 medium so that the density of the cells will be 2×10^3 cells/well/200 μL. 200 μL of the cell suspension was inoculated on a poly-D-lysine/laminin-coated 96 well plate and the plate was incubated in an incubator at 37° C. Test compounds were added 1 hour after seeding of cells.
On day 3 of the incubation period, neurons were stained with Calcein-AM and the lengths of neurites were determined using IN Cell Analyzer (GE Healthcare Bioscience).
The ability (%) of each test compound to promote neurite outgrowth was calculated from the following equation: The ability to promote neurite outgrowth (%)=[(measurement with a compound of interest)/(measurement of control)]×100
Example Compounds 65, 71, 74, 92, 130 and 135 were used as test compounds and were each added at a concentration of 0.1 μM.
The results are shown in Table 27. bFGF gives a measurement of about 130 in this test.

[4] = biological target: T1, chemokine receptor CCR3 (Homo sapiens, UniProt P51677); assay: Affinity to chemokine receptor CCR3; format: binding; details: at a concentration of 10 μM
T1 sequence (P51677 1-355): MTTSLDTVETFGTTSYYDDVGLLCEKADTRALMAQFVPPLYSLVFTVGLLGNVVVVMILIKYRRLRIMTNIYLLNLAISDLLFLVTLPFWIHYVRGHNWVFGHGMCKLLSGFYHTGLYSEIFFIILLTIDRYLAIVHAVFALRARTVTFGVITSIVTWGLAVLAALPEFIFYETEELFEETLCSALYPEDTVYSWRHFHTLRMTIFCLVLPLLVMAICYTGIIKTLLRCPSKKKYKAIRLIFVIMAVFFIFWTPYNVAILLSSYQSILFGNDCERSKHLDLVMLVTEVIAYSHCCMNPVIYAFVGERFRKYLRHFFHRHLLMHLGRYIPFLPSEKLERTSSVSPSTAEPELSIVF
Description: Although the compounds of the present invention are novel compounds, compounds having a partly similar skeleton are described, for example, in Published Japanese Translation of PCT International Application No. 2003-507456, WO 01/79170 and WO 00/23076.

[5] = tested on: critical limb ischemia model (left femoral artery excised); assay: Test Example 4: lower limb ischemia (critical limb ischemia) model in mice; format: in vivo, Balb/c mice; details: oral once daily 0.1 or 1.0 mg/kg for 10 days from femoral artery excision, vs Vehicle
Procedure: According to the method of Ichiro Masaki [Circ Res. 90; 966-973 (2002)], the left femoral artery of Balb/c mice was excised to establish a model of critical limb ischemia (n=29 to 30).
Test compounds used were Example Compounds 65, 92, 114, 130, 135 and 136, each of which was orally administered once daily at a dose of 0.1 mg/kg or 1.0 mg/kg for 10 days starting from the day of femoral artery excision.
The results are shown in FIGS. 1 to 6 in which FIGS. 1, 2, 3, 4, 5 and 6 show the results of Example Compounds 65, 92, 114, 130, 135 and 136, respectively.
In the figures, a thick solid line indicates a Vehicle group, a thin dotted line indicates a group administered 0.1 mg/kg/day of each compound, and a thin solid line indicates a group administered 1.0 mg/kg/day of each compound.
*: P<0.05, **: P<0.01, ***: P<0.001 vs Vehicle by Wilcoxon's test.

[6] = Hippocampal neuron, 216 h, % of control, rat hippocampal neurons, day 9, read-out: Promotion of axonal outgrowth (%)
[7] = reference, concentration not given, used as threshold

| Molecule | activity at 3 µM [1, 6] [%] | activity at 3 µM [2] [%] | further results |
| --- | --- | --- | --- |
| Cc1nc(OCC(=O)N(C)C2CCN(CC3CCCCC3)CC2)nc(C)c1N [Compound 71, 2-(5-amino-4,6-dimethylpyrimidine-2-yloxy)-N-(1-(cyclohexylmethyl)piperidine-4-yl)-N-methylacetamide] | 140 | 126 | Promotion of spinal cord neurite outgrowth (%) [3]: 139% |
| Cc1nc(OCC(=O)N(C)C2CCN(C(=O)c3ccccc3)CC2)nc(C)c1N [Compound 74, 2-(5-amino-4,6-dimethylpyrimidine-2-yloxy)-N-(1-benzoylpiperidine-4-yl)-N-methylacetamide] | 159 | 136 | Promotion of spinal cord neurite outgrowth (%) [3]: 125% |
| Cc1nc(OCC(=O)N(C)C2CCN(Cc3ccc(F)cc3)CC2)nc(C)c1N [Compound 85, 2-(5-amino-4,6-dimethylpyrimidine-2-yloxy)-N-(1-(4-fluorobenzyl)piperidine-4-yl)-N-methylacetamide] | 140 | 123 | affinity to chemokine receptor CCR3 [4]: 2.4% |
| Cc1nc(OCC(=O)N(C)C2CCN(Cc3cc(F)c(F)c(F)c3)CC2)nc(C)c1N [Compound 91, 2-(5-amino-4,6-dimethylpyrimidine-2-yloxy)-N-methyl-N-(1-(3,4,5-trifluorobenzyl)piperidine-4-yl)acetamide] | 150 | 124 | affinity to chemokine receptor CCR3 [4]: 18% |
| Cc1nc(OCC(=O)N(C)C2CCN(C(=O)C3CC3)CC2)nc(C)c1N [Compound 92, 2-(5-amino-4,6-dimethylpyrimidine-2-yloxy)-N-(1-(cyclopropanecarbonyl)piperidine-4-yl)-N-methylacetamide] | 127 | 153 | Promotion of spinal cord neurite outgrowth (%) [3]: 120%; survival rate of lower limb [5]: increased survival rate |
| CNc1c(C)nc(OC(C)C(=O)N(C)C2CCN(Cc3ccccc3)CC2)nc1C (centres unmarked) [Compound 100, N-(1-benzylpiperidine-4-yl)-2-(4,6-dimethyl-5-(methylamino)pyrimidine-2-yloxy)-N-methylpropanamide] | 128 |  | activity at 0.3 µM [2]: 116% |
| Cc1nc(OCC(=O)NC2CCN(C(=O)c3ccc(F)cc3)CC2)nc(C)c1N [Compound 102, 2-(5-amino-4,6-dimethylpyrimidine-2-yloxy)-N-(1-(4-fluorobenzoyl)piperidine-4-yl)acetamide] | 233 |  | affinity to chemokine receptor CCR3 [4]: 0.0% |
| Cc1cnc(Cl)nc1NCC(=O)N(C)C1CCN(Cc2ccccc2)CC1 [Compound 109, N-(1-benzylpiperidine-4-yl)-2-(2-chloro-5-methylpyrimidine-4-ylamino)-N-methylacetamide] | 159 | 124 | affinity to chemokine receptor CCR3 [4]: 16% |
| Cc1cnc(N)nc1NCC(=O)N(C)C1CCN(Cc2ccccc2)CC1 [Compound 111, 2-(2-amino-5-methylpyrimidine-4-ylamino)-N-(1-benzylpiperidine-4-yl)-N-methylacetamide maleate] |  | 121 | activity at 0.3 µM ([1]; Hippocampal neuron, 216 h, Compound Conc. = 0.3 μM, % of control, rat hippocampal neurons, day 9, read-out: Promotion of axonal outgrowth (%)): 118% |
| CN(C(=O)Cn1cc(F)c(N)nc1=O)C1CCN(Cc2ccccc2)CC1 [Compound 114, 2-(4-amino-5-fluoro-2-oxopyrimidine-1(2H)-yl)-N-(1-benzylpiperidine-4-yl)-N-methylacetamide] | 183 | 125 | survival rate of lower limb [5]: increased survival rate |
| Cc1cc([N+](=O)[O-])cnc1NCC(=O)N(C)C1CCN(Cc2ccccc2)CC1 [Compound 123, N-(1-benzylpiperidine-4-yl)-N-methyl-2-(3-methyl-5-nitropyridine-2-ylamino)acetamide] | 131 | 132 |  |
| CN(C(=O)COc1nccnc1Cl)C1CCN(Cc2ccccc2)CC1 [Compound 128, N-(1-benzylpiperidine-4-yl)-2-(3-chloropyrazine-2-yloxy)-N-methylacetamide hydrochloride] | 156 |  | activity at 0.3 µM [2]: 115% |
| CN(C)c1ccc(OCC(=O)N(C)C2CCN(C(=O)C3CC3)CC2)nn1 [Compound 136, N-(1-(cyclopropanecarbonyl)piperidine-4-yl)-2-(6-(dimethylamino)pyridazine-3-yloxy)-N-methylacetamide] | 133 |  | activity at 0.3 µM [2]: 110%; survival rate of lower limb [5]: increased survival rate |
| bFGF: basic fibroblast growth factor (bFGF), a growth factor known to promote angiogenesis; reference that sets the threshold |  |  | Promotion of axonal outgrowth, measurement of bFGF in this test [1, 7]: about 120%; Promotion of angiogenesis, measurement of bFGF in this test [2, 7]: about 120%; Promotion of spinal cord neurite outgrowth, measurement of bFGF in this test ([3]; reference, concentration not given): about 130% |
